Measured values as given in patent US12551573B2, “Compositions and methods for the targeting of PCSK9” (Scribe Therapeutics Inc., priority 2022, dated 2026).

Tests used:
HBEGF locus = format: cell-based, human; conditions: HEK293T; dCasX491 fusion, scaffold 174 spacer 34.28; 2 ng/ml diphtheria toxin for 48 hours
human PCSK9 locus [1] = test: Secreted PCSK9 by ELISA in HepG2 cells transfected with CasX 676 mRNA #2 and PCSK9-targeting gRNA; format: cell-based; conditions: CasX 676 mRNA #2 + gRNA scaffold 316 (v1), two days post-transfection
Experimental: In vitro transcription of CasX 676 mRNA #2 (sequence listed in Table 28, below) was performed as described in Example 7, below. Guide RNAs using scaffold 316 and a PCSK9-targeting spacer were synthesized with a v1 modification profile (as discussed in Example 7). Spacers 6.1, 6.8, 6.86, 6.114, 6.197, and 6.203 (sequences listed in Table 24) were assessed for intracellular PCSK9 retention.
To determine whether use of certain PCSK9-targeting spacers would result in potential intracellular PCSK9 retention, ˜50,000 HepG2 cells were seeded per well in a 96-well plate. CasX 676 mRNA #2 was transfected into HepG2 cells with a PCSK9-targeting gRNA using Lipofectamine™. After a media change, the following were harvested two days post-transfection: 1) media supernatant to measure secreted PCSK9 protein levels by ELISA; and 2) transfected cells for western blotting analysis to evaluate intracellular PCSK9 levels. Harvested cells were subjected to whole cell lysate extraction for western blotting analysis. Briefly, extracted protein samples were resolved by SDS-PAGE followed by immunoblotting to analyze levels of pro-PCSK9 and processed PCSK9, which were quantified by densitometry. Secreted PCSK9 levels in the media supernatant were analyzed using the BioLegend® ELISA MAX™ kit following the manufacturer's instructions. […]

human PCSK9 locus [2] = test: Secreted PCSK9 by ELISA (normalized to total cell count) in Huh7 cells transfected with mRNA and gRNA; format: cell-based; conditions: paired with LTRP5-ADD-ZIM3 mRNA, Huh7 cells, 6 days post-transfection; for Secreted PCSK9: normalized to total cell count; for Percent reduction in PCSK9 secretion: relative to non-targeting gRNA control
Method in brief: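 Huh7 cells were transfected with CasX or epigenetic-editor mRNA plus PCSK9- or B2M-targeting gRNA (scaffold 316). In one screen, LTRP5-ADD-ZIM3 mRNA:gRNA was given at 50:25 or 25:12.5 ng by Lipofectamine 3000. Secreted PCSK9 was measured by ELISA in supernatant 4-87 days post-transfection and normalized to total cell count.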

PCSK9 protein = test: Western blot of intracellular pro-PCSK9 and processed PCSK9 in transfected HepG2 cells; format: cell-based, human; conditions: CasX 676 mRNA #2 + gRNA, western blot densitometry, two days post-transfection
Experimental: To determine whether use of certain PCSK9-targeting spacers would result in potential intracellular PCSK9 retention, ˜50,000 HepG2 cells were seeded per well in a 96-well plate. CasX 676 mRNA #2 was transfected into HepG2 cells with a PCSK9-targeting gRNA using Lipofectamine™. After a media change, the following were harvested two days post-transfection: 1) media supernatant to measure secreted PCSK9 protein levels by ELISA; and 2) transfected cells for western blotting analysis to evaluate intracellular PCSK9 levels. Harvested cells were subjected to whole cell lysate extraction for western blotting analysis. Briefly, extracted protein samples were resolved by SDS-PAGE followed by immunoblotting to analyze levels of pro-PCSK9 and processed PCSK9, which were quantified by densitometry. Secreted PCSK9 levels in the media supernatant were analyzed using the BioLegend® ELISA MAX™ kit following the manufacturer's instructions. Naïve, untreated cells and cells transfected with CasX 676 mRNA #2 only served as two experimental controls.

standard ZNF10: human ZNF10 KRAB repressor domain, SEQ ID NO: 129 [reference compound]
log 2 (fold change) of abundance before and after selection (HBEGF locus): 1.3637

GAGGAGGACGGCCUGGCCGA (listed as RNA, chemistry not given here) [spacer 6.1, Exon 1]
reduction in secreted PCSK9 levels compared to cells transfected with CasX 676 mRNA only (human PCSK9 locus [1]): ~50% | Secreted PCSK9 (human PCSK9 locus [2]; 25 ng mRNA:12.5 ng gRNA): 32.86 ng/mL | Percent reduction in PCSK9 secretion (human PCSK9 locus [2]; 25 ng mRNA:12.5 ng gRNA): 53.88% | Secreted PCSK9 (human PCSK9 locus [2]; 50 ng mRNA:25 ng gRNA): 18.21 ng/mL | Percent reduction in PCSK9 secretion (human PCSK9 locus [2]; 50 ng mRNA:25 ng gRNA): 77.86% | Average percent reduction in PCSK9 secretion (human PCSK9 locus [2]; averaged from the two doses): 65.87% | intracellular pro-PCSK9 / intracellular protein levels (PCSK9 protein): did not result in substantially increased pro-PCSK9 levels
